Assays:
[1] = Drug excretion in F344/DuCrlCrlj rat feces assessed as unchanged compound at 1 mg/kg, po administered via gavage measured during 0 to 48 hrs by radio-HPLC analysis; format: ADME, organism-based; design: dose 1 mg/kg, dosed compound name [14C]Rivoglitazone, route oral; details: read-out: Compound recovery
[2] = Drug excretion in F344/DuCrlCrlj rat urine/feces assessed as unchanged compound at 1 mg/kg, po administered via gavage measured during 0 to 48 hrs by radio-HPLC analysis; format: ADME, organism-based; design: dose 1 mg/kg, dosed compound name [14C]Rivoglitazone, route oral; details: urine and feces, read-out: Compound recovery
[3] = Drug excretion in bile duct-cannulated rat feces assessed as unchanged compound level administered through oral dose by radio-HPLC analysis; format: ADME; design: dosed compound name [14C]Rivoglitazone; details: read-out: Compound recovery
[4] = Drug excretion in monkey urine/feces assessed as unchanged compound at 1 mg/kg, po administered via gavage measured during 0 to 72 hrs by radio-HPLC analysis; format: ADME, organism-based, Macaca mulatta; design: dose 1 mg/kg, dosed compound name [14C]Rivoglitazone, route oral; details: rhesus monkey, urine and feces, read-out: Compound recovery
[5] = AUC (0 to infinity) in monkey at 0.493 mg/kg, po administered via gavage by LC-MS/MS analysis; format: ADME, organism-based, Macaca mulatta; design: time infinity, dose 0.493 mg/kg, dosed compound name [14C]Rivoglitazone, route oral; details: rhesus monkey, plasma
[6] = Tmax in monkey at 0.493 mg/kg, po administered via gavage by LC-MS/MS analysis; format: ADME, organism-based, Macaca mulatta; design: dose 0.493 mg/kg, dosed compound name [14C]Rivoglitazone, route oral; details: rhesus monkey, in vivo
[7] = Terminal elimination half life in monkey at 0.493 mg/kg, po administered via gavage by LC-MS/MS analysis; format: ADME, organism-based, Macaca mulatta; design: dose 0.493 mg/kg, dosed compound name [14C]Rivoglitazone, route oral; details: rhesus monkey, in vivo, read-out: beta t1/2 (converted)
[8] = Oral bioavailability in monkey at 0.493 mg/kg administered via gavage by LC-MS/MS analysis; format: ADME, organism-based, Macaca mulatta; design: dosed compound name [14C]Rivoglitazone; details: rhesus monkey, in vivo
[9] = AUC (0 to t) in monkey at 0.986 mg/kg, po administered via gavage by LC-MS/MS analysis; format: ADME, organism-based, Macaca mulatta; design: dose 0.986 mg/kg, dosed compound name [14C]Rivoglitazone, route oral; details: rhesus monkey, plasma
[10] = Apparent total clearance in monkey at 0.986 mg/kg, po administered via gavage by LC-MS/MS analysis; format: ADME, organism-based, Macaca mulatta; design: dose 0.986 mg/kg, dosed compound name [14C]Rivoglitazone, route oral; details: rhesus monkey, in vivo, read-out: CLt/F
[11] = Cmax in F344/DuCrlCrlj rat at 0.1 mg/kg, po administered via gavage by LC-MS/MS analysis; format: ADME, organism-based; design: dose 0.1 mg/kg, dosed compound name [14C]Rivoglitazone, route oral; details: in vivo
[12] = Cmax in F344/DuCrlCrlj rat at 0.5 mg/kg, po administered via gavage by LC-MS/MS analysis; format: ADME, organism-based; design: dose 0.5 mg/kg, dosed compound name [14C]Rivoglitazone, route oral; details: in vivo
[13] = Tmax in F344/DuCrlCrlj rat at 0.5 mg/kg, po administered via gavage by LC-MS/MS analysis; format: ADME, organism-based; design: dose 0.5 mg/kg, dosed compound name [14C]Rivoglitazone, route oral; details: in vivo
[14] = Terminal elimination half life in F344/DuCrlCrlj rat at 0.5 mg/kg, po administered via gavage by LC-MS/MS analysis; format: ADME, organism-based; design: dose 0.5 mg/kg, dosed compound name [14C]Rivoglitazone, route oral; details: in vivo, read-out: beta t1/2 (converted)
[15] = Apparent total clearance in F344/DuCrlCrlj rat at 0.5 mg/kg, po administered via gavage by LC-MS/MS analysis; format: ADME, organism-based; design: dose 0.5 mg/kg, dosed compound name [14C]Rivoglitazone, route oral; details: in vivo, read-out: CLt/F
[16] = Oral bioavailability in F344/DuCrlCrlj rat at 0.5 mg/kg administered via gavage by LC-MS/MS analysis; format: ADME, organism-based; design: dosed compound name [14C]Rivoglitazone; details: in vivo
[17] = Cmax in F344/DuCrlCrlj rat at 1 mg/kg, po administered via gavage by LC-MS/MS analysis; format: ADME, organism-based; design: dose 1 mg/kg, dosed compound name [14C]Rivoglitazone, route oral; details: in vivo
[18] = Terminal elimination half life in F344/DuCrlCrlj rat at 1 mg/kg, po administered via gavage by LC-MS/MS analysis; format: ADME, organism-based; design: dose 1 mg/kg, dosed compound name [14C]Rivoglitazone, route oral; details: in vivo, read-out: beta t1/2 (converted)
[19] = AUC (0 to t) in monkey at 0.0986 mg/kg, po administered via gavage by LC-MS/MS analysis; format: ADME, organism-based, Macaca mulatta; design: dose 0.0986 mg/kg, dosed compound name [14C]Rivoglitazone, route oral; details: rhesus monkey, plasma
[20] = AUC (0 to infinity) in monkey at 0.0986 mg/kg, po administered via gavage by LC-MS/MS analysis; format: ADME, organism-based, Macaca mulatta; design: time infinity, dose 0.0986 mg/kg, dosed compound name [14C]Rivoglitazone, route oral; details: rhesus monkey, plasma
[21] = Cmax in monkey at 0.0986 mg/kg, po administered via gavage by LC-MS/MS analysis; format: ADME, organism-based, Macaca mulatta; design: dose 0.0986 mg/kg, dosed compound name [14C]Rivoglitazone, route oral; details: rhesus monkey, in vivo
[22] = Apparent total clearance in monkey at 0.0986 mg/kg, po administered via gavage by LC-MS/MS analysis; format: ADME, organism-based, Macaca mulatta; design: dose 0.0986 mg/kg, dosed compound name [14C]Rivoglitazone, route oral; details: rhesus monkey, in vivo, read-out: CLt/F
[23] = AUC (0 to infinity) in monkey at 0.493 mg/kg, iv administered via tail vein by LC-MS/MS analysis; format: ADME, organism-based, Macaca mulatta; design: time infinity, dose 0.493 mg/kg, dosed compound name [14C]Rivoglitazone, route intravenous; details: rhesus monkey, plasma
[24] = Total clearance in monkey at 0.493 mg/kg, iv administered via tail vein by LC-MS/MS analysis; format: ADME, organism-based, Macaca mulatta; design: dose 0.493 mg/kg, dosed compound name [14C]Rivoglitazone, route intravenous; details: rhesus monkey, in vivo
[25] = Volume of distribution at steady state in monkey at 0.493 mg/kg, iv administered via tail vein by LC-MS/MS analysis; format: ADME, organism-based, Macaca mulatta; design: dose 0.493 mg/kg, dosed compound name [14C]Rivoglitazone, route intravenous; details: rhesus monkey, in vivo, read-out: Vdss
[26] = AUC (0 to t) in monkey at 0.986 mg/kg, iv administered via tail vein by LC-MS/MS analysis; format: ADME, organism-based, Macaca mulatta; design: dose 0.986 mg/kg, dosed compound name [14C]Rivoglitazone, route intravenous; details: rhesus monkey, plasma
[27] = Total clearance in monkey at 0.986 mg/kg, iv administered via tail vein by LC-MS/MS analysis; format: ADME, organism-based, Macaca mulatta; design: dose 0.986 mg/kg, dosed compound name [14C]Rivoglitazone, route intravenous; details: rhesus monkey, in vivo
[28] = AUC (0 to t) in F344/DuCrlCrlj rat at 0.1 mg/kg, iv administered via tail vein by LC-MS/MS analysis; format: ADME, organism-based; design: dose 0.1 mg/kg, dosed compound name [14C]Rivoglitazone, route intravenous; details: plasma
[29] = AUC (0 to infinity) in F344/DuCrlCrlj rat at 0.1 mg/kg, iv administered via tail vein by LC-MS/MS analysis; format: ADME, organism-based; design: time infinity, dose 0.1 mg/kg, dosed compound name [14C]Rivoglitazone, route intravenous; details: plasma
[30] = Total clearance in F344/DuCrlCrlj rat at 0.5 mg/kg, iv administered via tail vein by LC-MS/MS analysis; format: ADME, organism-based; design: dose 0.5 mg/kg, dosed compound name [14C]Rivoglitazone, route intravenous; details: in vivo
[31] = Volume of distribution at steady state in F344/DuCrlCrlj rat at 0.5 mg/kg, iv administered via tail vein by LC-MS/MS analysis; format: ADME, organism-based; design: dose 0.5 mg/kg, dosed compound name [14C]Rivoglitazone, route intravenous; details: in vivo, read-out: Vdss
[32] = Terminal elimination half life in F344/DuCrlCrlj rat at 0.5 mg/kg, iv administered via tail vein by LC-MS/MS analysis; format: ADME, organism-based; design: dose 0.5 mg/kg, dosed compound name [14C]Rivoglitazone, route intravenous; details: in vivo, read-out: beta t1/2 (converted)
[33] = AUC (0 to t) in monkey at 0.0986 mg/kg, iv administered via tail vein by LC-MS/MS analysis; format: ADME, organism-based, Macaca mulatta; design: dose 0.0986 mg/kg, dosed compound name [14C]Rivoglitazone, route intravenous; details: rhesus monkey, plasma
[34] = AUC (0 to infinity) in monkey at 0.0986 mg/kg, iv administered via tail vein by LC-MS/MS analysis; format: ADME, organism-based, Macaca mulatta; design: time infinity, dose 0.0986 mg/kg, dosed compound name [14C]Rivoglitazone, route intravenous; details: rhesus monkey, plasma
[35] = Total clearance in monkey at 0.0986 mg/kg, iv administered via tail vein by LC-MS/MS analysis; format: ADME, organism-based, Macaca mulatta; design: dose 0.0986 mg/kg, dosed compound name [14C]Rivoglitazone, route intravenous; details: rhesus monkey, in vivo

SMILES: COc1ccc2nc(COc3ccc(CC4SC(=O)NC4=O)cc3)n(C)c2c1.Cl (racemic)
- dose excreted [1]: 23.7%
- dose excreted [2]: 23.7%
- dose excreted [3]: 12.6%
- dose excreted [4]: 23.8%
- AUC(0-inf) [5]: 17700 ng·h/mL
- Tmax [6]: 4.25 h
- half-life [7]: 7.56 h
- bioavailability [8]: 90.4%
- AUC(0-t) [9]: 35800 ng·h/mL
- CL/F [10]: 0.41 mL/min/kg
- Cmax [11]: 409 ng/mL
- Cmax [12]: 2090 ng/mL
- Tmax [13]: 1.13 h
- half-life [14]: 4.98 h
- CL/F [15]: 0.352 mL/min/kg
- bioavailability [16]: 95%
- Cmax [17]: 4570 ng/mL
- half-life [18]: 4.5 h
- AUC(0-t) [19]: 3440 ng·h/mL
- AUC(0-inf) [20]: 4470 ng·h/mL
- Cmax [21]: 242 ng/mL
- CL/F [22]: 0.432 mL/min/kg
- AUC(0-inf) [23]: 23500 ng·h/mL
- clearance [24]: 0.371 mL/min/kg
- Vd [25]: 0.155 L/kg
- AUC(0-t) [26]: 51700 ng·h/mL
- clearance [27]: 0.31 mL/min/kg
- AUC(0-t) [28]: 4530 ng·h/mL
- AUC(0-inf) [29]: 4670 ng·h/mL
- clearance [30]: 0.333 mL/min/kg
- Vd [31]: 0.131 L/kg
- half-life [32]: 4.84 h
- AUC(0-t) [33]: 3800 ng·h/mL
- AUC(0-inf) [34]: 5000 ng·h/mL
- clearance [35]: 0.312 mL/min/kg

From ChEMBL document CHEMBL3525983, “Pharmacokinetics, metabolism, and disposition of rivoglitazone, a novel peroxisome proliferator-activated receptor γ agonist, in rats and monkeys” (Drug Metab Dispos, 2011)
